From US20050020654A1, “Novel PPAR agonists, pharmaceutical compositions and uses thereof” (priority 2003, published 2005)
Read-outs that look alike come from different tables or passages of the source.

What was measured:
PPARγ [1] = molecular target: T1, PPARγ (Homo sapiens, UniProt P37231); assay: PPARγ transactivation assay (luciferase reporter) in transfected CV-1 cells; type: cell-based
T1 construct: expressed in transfected cells; host or cells: CV-1 cells (ATCC CCL-70)
T1 sequence (P37231 1-505): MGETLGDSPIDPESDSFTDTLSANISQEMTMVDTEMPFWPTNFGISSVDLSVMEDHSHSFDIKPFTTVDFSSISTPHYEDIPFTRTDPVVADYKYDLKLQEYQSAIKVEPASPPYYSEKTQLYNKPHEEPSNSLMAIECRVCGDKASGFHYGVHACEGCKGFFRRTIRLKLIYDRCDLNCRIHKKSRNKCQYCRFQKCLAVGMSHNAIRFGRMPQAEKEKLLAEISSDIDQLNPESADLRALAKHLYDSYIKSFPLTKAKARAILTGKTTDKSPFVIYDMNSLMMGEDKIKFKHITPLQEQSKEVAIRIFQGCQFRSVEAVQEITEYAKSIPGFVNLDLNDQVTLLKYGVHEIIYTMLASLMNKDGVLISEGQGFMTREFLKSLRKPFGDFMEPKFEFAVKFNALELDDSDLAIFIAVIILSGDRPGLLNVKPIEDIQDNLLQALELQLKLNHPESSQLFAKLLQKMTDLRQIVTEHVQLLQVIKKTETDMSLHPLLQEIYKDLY
Description: PPARγ activity was determined by transactivation assays in CV-1 cells (CCL-70 line from American Type Culture Collection (ATCC), Bethesda, Md.) transfected using the GenePorter transfection reagent (Gene Therapy Systems, San Diego, Calif.) to deliver 200 ng of a PPARγ expression plasmid and 1 μg of a luciferase reporter plasmid and 400 ng pCMVSport b-gal (Gibco, Grand Island, N.J.) as an internal control. 24 hr post-transfection, cells were treated with varying concentrations of the test compounds of this invention, and incubated for an additional 24 hr. Rosiglitazone and pioglitazone, a known PPARγ full agonist, and telmisartan, a known ARB and PPARγ partial agonist (Benson et al. Hypertension (2004) in press) are used as controls. Cell extracts were assayed for luciferase and β-galactosidase activity using Promega (Madison, Wis.) assay systems. All treatments were performed in triplicate, and normalized for β-galactosidase activity. Agonist concentrations yielding half maximal activation (EC50 values) were calculated using GraphPad Prism version 3.03 (GraphPad Software, Inc., San Diego, Calif.).

PPARγ [2] = molecular target: T1, PPARγ; conditions: Benson et al. Hypertension (2004) in press; cited from earlier work
[3] = type: in vivo
Description: An obese person (BMI: 34.4 kg/m2, waist circumference: 51 inches) with untreated hypertension, pre-diabetes and the metabolic syndrome was given telmisartan (Micardis®), 80 mg/day, for treatment of high blood pressure. […] The patient has the metabolic syndrome as defined by the National Cholesterol Education Program (NCEP). The metabolic syndrome is associated with a 5-9 fold increase in the risk for developing type 2 diabetes and a 2-3 fold increase risk in cardiovascular mortality. […] After 5 weeks on valsartan (week 15), their glucose, insulin, triglyceride levels, and HOMA-IR score increased, consistent with a reversal in the improved insulin resistance obtained with telmisartan (Table 1). Valsartan was discontinued and they were switched back to telmisartan.

[4] = type: in vivo, human
Description: A person with hypertension, hypertriglyceridemia, and type 2 diabetes was selected for therapy. […] The patient is taking another medication for type 2 diabetes but the dose of this medication is held constant throughout the trial. The patient is given telmisartan at an oral dose of 80 mg/day. […] The oral dose of telmisartan (Micardis®) is then increased to 160 mg/day. […] The telmisartan (Micardis®) therapy is continued according to the judgment of the clinician in order to maintain the improved control of the patient's blood pressure and their type 2 diabetes.

[5] = oral 80 mg/day, after three weeks
[6] = oral 160 mg/day, after seven weeks

CCCc1nc2c(C)cc(Br)cc2n1CCOc1ccc(CC2SC(=O)NC2=O)cc1C(=O)O (stereo not drawn) [2-(2-(6-Bromo-4-methyl-2-propyl-1H-benzo[d]imidazol-1-yl)ethoxy)-5-((2,4-dioxothiazolidin-5-yl)methyl)benzoic acid]
PPAR-γ Fold activation (PPARγ [1]; @ 0.1 uM): 3.8 x | PPAR-γ Fold activation (PPARγ [1]; @ 1 μM): 10 x | PPAR-γ Fold activation (PPARγ [1]; @ 10 μM): 15.5 x | PPAR-γ Fold activation (PPARγ [1]; @ .01 uM): 1.7 x

CCCc1nc2c(C)cc(-c3nc4ccccc4n3C)cc2n1Cc1ccc(-c2ccc(C(=O)OC)cc2C(=O)OC)cc1 [proaverysartan]
PPAR-γ Fold activation (PPARγ [1]; @ 0.1 uM): 1 x | PPAR-γ Fold activation (PPARγ [1]; @ 1 μM): 5 x | PPAR-γ Fold activation (PPARγ [1]; @ 5 uM): 9 x | PPAR-γ Fold activation (PPARγ [1]; @ 10 μM): 11 x

Methyl 5-((2,4-dioxothiazolidin-5-yl)methyl)-2-(2-(4-methyl-6-phenyl-2-propyl-1H-benzo[d]imidazol-1-yl)ethoxy)benzoate
PPAR-γ Fold activation (PPARγ [1]; @ 0.1 uM): 1.2 x | PPAR-γ Fold activation (PPARγ [1]; @ 1 μM): 6.1 x | PPAR-γ Fold activation (PPARγ [1]; @ 10 μM): 7.4 x

CCCc1nc2c(C)cc(-c3nc4ccccc4n3C)cc2n1Cc1ccc(-c2ccccc2C(=O)O)cc1 [telmisartan]
activation of PPARγ (PPARγ [2]): has been shown to activate PPARγ | blood pressure ([3]; 80 mg/day, throughout the observation period): normalized and remained normal | blood glucose, insulin and triglyceride concentrations ([3]; 80 mg/day, up to week 10): progressively decreased | insulin resistance, HOMA-IR score ([3]; 80 mg/day, up to week 10): improvement in insulin resistance | fluid retention, peripheral edema, pulmonary edema, or congestive heart failure on clinical examination ([3]; human, in vivo): no evidence of any increase | insulin resistance and triglycerides ([3]; switched back from valsartan, following 4 weeks (week 19)): again improved | activation of the receptor relative to maximum level of activity achieved by the full agonists pioglitazone and rosiglitazone (PPARγ [1]): 25%-30% | PPARγ activation (PPARγ [1]; tested at concentrations 1-5 mM): 5-8 fold | HDL cholesterol [4, 5]: 50 mg/dL | blood pressure [4, 5]: 143/91 | fasting glucose [4, 5]: 188 mg/dL | triglyceride [4, 5]: 281 mg/dL | HDL cholesterol [4, 6]: 60 mg/dL | blood pressure [4, 6]: 131/81 | glucose level [4, 6]: 145 mg/dL | triglyceride level [4, 6]: 178 mg/dL

CCCCC1=NC2(CCCC2)C(=O)N1Cc1ccc(-c2ccccc2-c2nnn[nH]2)cc1 [Irbesartan, reference compound]
PPARγ activation (PPARγ [1]): 2-3 fold

CCCCC(=O)N(Cc1ccc(-c2ccccc2-c2nnn[nH]2)cc1)[C@H](C(=O)O)C(C)C [valsartan]
activation of PPARγ (PPARγ [2]): does not activate PPARγ | glucose, insulin, triglyceride levels, and HOMA-IR score ([3]; 160 mg/day, after 5 weeks (week 15), after switch from telmisartan): increased

CCCc1nc2c(C)cc(Br)cc2n1CCOc1ccc(CC2SC(=O)NC2=O)cc1C(=O)OC (stereo not drawn) [Methyl 2-(2-(6-bromo-4-methyl-2-propyl-1H-benzo[d]imidazol-1-yl)ethoxy)-5-((2,4-dioxothiazolidin-5-yl)methyl)benzoate]
PPAR-γ Fold activation (PPARγ [1]; @ 0.1 uM): 3.1 x | PPAR-γ Fold activation (PPARγ [1]; @ 1 μM): 32 x | PPAR-γ Fold activation (PPARγ [1]; @ 10 μM): 41 x | PPAR-γ Fold activation (PPARγ [1]; @ .01 uM): 1 x

CCCc1nc2c(C)cc(-c3nc4ccccc4n3C)cc2n1Cc1ccc(-c2ccc(C(=O)O)cc2C(=O)O)cc1 [averysartan]
PPAR-γ Fold activation (PPARγ [1]; concentration not given): No activity

COC(=O)c1cc(CC2SC(=O)NC2=O)ccc1OCCn1c(CCCCC2CCCCC2)nc2ccccc21 (stereo not drawn) [Methyl 2-(2-(2-(4-cyclohexylbutyl)-1H-benzo[d]imidazol-1-yl)ethoxy)-5-((2,4-dioxothiazolidin-5-yl)methyl)benzoate]
PPAR-γ Fold activation (PPARγ [1]; @ 0.1 uM): 2 x | PPAR-γ Fold activation (PPARγ [1]; @ 1 μM): 24 x | PPAR-γ Fold activation (PPARγ [1]; @ 10 μM): 34 x | PPAR-γ Fold activation (PPARγ [1]; @ .01 uM): 1 x
